Values joined by “and” are separate entries in the source; they are usually repeats but may differ in a detail not shown here. Equal values may be shown once.
Experiment: Single dose intravenous PK study in male Sprague Dawley rats (plasma by LC-MS/MS)
Type: in vivo
Details: PRX-P5-011 IV 2 mg/kg b.w.
Procedure: We describe here PK results of prodrugs of PRX-002 (−) or (+) isomers. All doses of prodrugs were administered such that they were equivalent to 5 mg/kg of PRX-002 (−) or (+) for oral studies and 2 mg/kg PRX-002 (−) or (+) for intravenous studies in male Sprague-Dawley (MSD) rats. Higher doses of up to 10 or 15 mg/kg [again equivalent to PRX-002 (−)] were used in some studies (as specified)]. Formulation preparation, dose administration and time of sample collection was as follows.
(§1) Adult male Sprague Dawley Rats aged 8-10 weeks were used for the study. Animals were administered the test item by Intravenous bolus route with a dose of 2 mg/kg body weight at dose volume of 5.0 mL/kg body weight. Under mild isoflurane anesthesia, blood specimens were collected by retro-orbital puncture method using capillary tubes into pre-labeled tubes containing anticoagulant (K2EDTA-2 mg/mL blood) during the next 24 hours of post dose as mentioned in below table. For blood sampling at multiple time points, right and left eyes were used alternatively for blood collection. Collected blood specimens were centrifuged at 4000 rpm, 4° C. for 10 minutes and plasma were separated and stored at −80° C. until analysis.
Blood was collected as outlined in Table 39.2 (IV).
Test item PRX-P4-003 was weighed and transferred to a graduated tube. Then 600 μL of PEG 400 (v/v) was added and vortex mixed thoroughly until the test item was completely dissolved. Then 1.800 mL of Hydroxypropyl-β-cyclodextrin (HPβCD, 50% w/v) was added and vortex mixed thoroughly. The final volume was then made up to 3.600 mL with sterile water for injection (SWFI, v/v) with final formulation strength of 5.16 mgA/mL. […] This formulation was freshly prepared before the administration to animals.
as §1, with “administered with a PRX-P4-003” for “administered the test item”, “of 10” for “of 2”, “of 5” for “of 5.0”
Test item PRX-P5-006 was weighed and transferred to a graduated tube. Then 500 μL of DMSO (v/v) was added vortex mixed thoroughly until the test item was completely dissolved. Then 4000 μL of Hydroxypropyl-β-cyclodextrin (HPβCD, 50% w/v) was added and vortex mixed thoroughly. Then 2500 μL of PEG 400 (v/v) was added and vortex mixed thoroughly. The final volume was then made up to 10000 μL with sterile water for injection (SWFI, v/v) with final formulation strength of 3.97 mg/mL. […] This formulation was freshly prepared before the administration to animals.
as §1, with “administered with a PRX-P5-006” for “administered the test item”, “of 15” for “of 2”, “of 10” for “of 5.0”
The plasma concentrations of fencamfamine were measured by LC-MS/MS over time. […] The release of fencamfamine from the prodrugs varied depending on the chain length of the fatty acid linkers attached to fencamfamine. […]

## CCCCCCCCCCCCCCCCCC(=O)OC(C)OC(=O)N(CC)C1C2CCC(C2)C1c1ccccc1 (single isomer, unassigned) [PRX-P5-011, N-(1-Octadecanoyloxyethoxycarbonyl)-(+)-N-ethyl-3-phenylbicyclo[2.2.1]heptan-2-amine]
0.08 h, individual animals, 2 mg/kg
  Plasma concentration of PRX-P5-011: 114.77 ng/mL and 37.09 ng/mL and 179.14 ng/mL
0.25 h, individual animals, 2 mg/kg
  Plasma concentration of PRX-P5-011: 56.47 ng/mL and 17.98 ng/mL and 101.04 ng/mL
0.50 h, individual animals
  Plasma concentration of PRX-P5-011: 0.00 ng/mL
1.00 h, individual animals
  Plasma concentration of PRX-P5-011: 0.00 ng/mL
2.00 h, individual animals
  Plasma concentration of PRX-P5-011: 0.00 ng/mL
4.00 h, individual animals
  Plasma concentration of PRX-P5-011: 0.00 ng/mL
6.00 h, individual animals
  Plasma concentration of PRX-P5-011: 0.00 ng/mL
24.00 h, individual animals
  Plasma concentration of PRX-P5-011: 0.00 ng/mL
male, Sprague-Dawley, rat, plasma, iv, 2 mg/kg, 0.08 h, mean
  concentration at 0.08 h: 110 ng/mL
male, Sprague-Dawley, rat, plasma, iv, 2 mg/kg, 0.25 h, mean
  concentration at 0.25 h: 58.5 ng/mL
male, Sprague-Dawley, rat, plasma, iv, 2 mg/kg, 0.50 h, individual animals
  concentration at 0.5 h: 0 ng/mL
male, Sprague-Dawley, rat, plasma, iv, 2 mg/kg, 0.50 h, mean
  concentration at 0.5 h: 0 ng/mL
male, Sprague-Dawley, rat, plasma, iv, 2 mg/kg, 1.00 h, individual animals
  concentration at 1 h: 0 ng/mL
male, Sprague-Dawley, rat, plasma, iv, 2 mg/kg, 1.00 h, mean
  concentration at 1 h: 0 ng/mL
male, Sprague-Dawley, rat, plasma, iv, 2 mg/kg, 2.00 h, individual animals
  concentration at 2 h: 0 ng/mL
male, Sprague-Dawley, rat, plasma, iv, 2 mg/kg, 2.00 h, mean
  concentration at 2 h: 0 ng/mL
male, Sprague-Dawley, rat, plasma, iv, 2 mg/kg, 4.00 h, individual animals
  concentration at 4 h: 0 ng/mL
male, Sprague-Dawley, rat, plasma, iv, 2 mg/kg, 4.00 h, mean
  concentration at 4 h: 0 ng/mL
male, Sprague-Dawley, rat, plasma, iv, 2 mg/kg, 6.00 h, individual animals
  concentration at 6 h: 0 ng/mL
male, Sprague-Dawley, rat, plasma, iv, 2 mg/kg, 6.00 h, mean
  concentration at 6 h: 0 ng/mL
male, Sprague-Dawley, rat, plasma, iv, 2 mg/kg, 24.00 h, individual animals
  concentration at 24 h: 0 ng/mL
male, Sprague-Dawley, rat, plasma, iv, 2 mg/kg, 24.00 h, mean
  concentration at 24 h: 0 ng/mL
